Results as given in EP1319663A1, “Antidepressant folic -, folinic- and glutamic-acid lithium salts” (Dospharma S.A., priority 2001, dated 2003).

Columns and labels:
rats rendus dépressifs [1] = assay: Despair test in rat (first depression model); format: in vivo; details: dose de 10 mg; per os, twice daily, eight days
Excerpt: (§1) L'activité antidépressive du mélange folate de lithium - glutamate de lithium a été étudiée sur deux modèles de rats rendus dépressifs. On a utilisé comme molécule de référence, la desméthylimipramine (DMI) et comme produit de comparaison un mélange de carbonate de lithium, d'acide folique et d'acide glutamique dans les mêmes proportions que l'association selon l'invention. Les traitements ont été poursuivis per os avec administration biquotidienne durant huit jours.
Le premier modèle utilisé est le test du désespoir chez le rat (Despair Test). Les rats sont placés pour ce test dans une cuve d'eau tiédie à 27°C sans possibilité de s'échapper. Après une nage de quelques minutes, les animaux s'immobilisent et le temps moyen d'immobilité est chronométré. Il correspond à la phase de dépression. La DMI (antidépresseur de référence) à la dose de 10 mg diminue de 50 % ce temps d'immobilisation. Une courbe effet-dose a été établie avec l'association folate de lithium-glutamate de lithium. Un effet est observé dès la dose de 1 mg/kg. Il est maximum avec une dose de 20 mg/kg. A titre de comparaison, le lithium administré, sous forme de carbonate de lithium avec un mélange d'acide folique et d'acide glutamique, est moins actif sur ce modèle. On constate une potentialisation des effets du lithium lorsqu'il est administré sous forme de folate de lithium et de glutamate de lithium.

rats rendus dépressifs [2] = assay: Modified one-way avoidance test in rat (second depression model); format: in vivo; details: dose de 1 mg/kg; per os, twice daily, eight days
Excerpt: as §1
Le second test pratiqué est un test à voie unique (one-way)modifié. Dans un premier temps on apprend aux rats à passer d'un compartiment à un autre pour éviter un choc électrique. Les rats sélectionnés qui donnent systématiquement la réponse d'évitement sont placés dans un système à quatre compartiments avec retour au premier compartiment. Les animaux apprennent à éviter le choc électrique en passant du compartiment I à II, puis II à III et […]. Le passage de IV vers I pose un problème puisque les rats reconnaissent (ou sentent) le point de départ.
Les rats s'immobilisent en position de « freezing » en dépit des décharges électriques qu'ils reçoivent. Le temps requis pour amener l'immobilisation correspond à une phase de dépression.

[3] = Solubility of the lithium salts; format: physicochemical; details: solvents as named in the value

| Compound | diminution du temps d'immobilisation (rats rendus dépressifs [1]) | effet sur le temps d'immobilisation (freezing) (rats rendus dépressifs [2]) | solubilité [3] |
| --- | --- | --- | --- |
| CNCCCN1c2ccccc2CCc2ccccc21 [DMI, desméthylimipramine] | 50% | supprime complètement ce temps d'immobilisation |  |
| folate de lithium |  |  | solubles dans l'eau et les solvants hydroxylés |
| folinate de lithium [folinate lithié] |  |  | solubles dans l'eau et les alcools |
